This note sets out measurements from patent publication US20080102497A1, “ENZYMATIC HYDROLYSIS OF STARCH” (priority 2006, published 2008).

Holding throughout (format): biochemical
The subject of experiment [1] is enzyme mixture of purified glucoamylase from mushroom and purified α-amylase from barley. The experiment in a line: hydrolysis of raw corn starch by enzyme mixture, reducing sugar by DNSA. The settings on record: for Relative Activity: 10 mM additive, raw corn starch, pH 5.3, 37° C., 20 min; for effect on hydrolysis of raw corn starch (in words): summary of Table 2. As to the method:
Enzyme mixture was also pre-incubated with 10 mM Fe^++, Cu^++, Ca^++, Mg^++, or disodium ethylenediamine-tetraacetic acid (EDTA). Thereafter, 40 μl of each pre-incubation solution was added to 15 mg raw corn starch, and the reaction mixture incubated at 37° C. for 20 minutes. The control reaction mixture contained substrate, enzyme, and buffer but no additional metal ions. The starch hydrolysis reaction was stopped by combining the reaction mixture with a solution containing 3,5 dinitrosalicylic acid (DNSA) and heating for 30 min at 85° C. The absorbance of the control and test samples was measured at 562 nm to monitor the amount of reducing sugar in each sample.

Experiment [2] addresses glucoamylase from Aspergillus Niger (Aspergillus niger, UniProt P69328). The experiment in a line: hydrolysis of cooked dent corn starch with other additives. The settings on record: for effect on rate of enzymatic hydrolysis (in words): 10 mM additive, cooked dent corn starch; for Relative Activity: Additive (10 mM), cooked dent corn starch 0.5%, pH 5.2, 37° C., 10 min. Here is the method:
(§1) The glucoamylase from Aspergillus Niger was added to a sodium acetate buffer solution, pH 5.2, comprising no metal or 10 mM Fe^++, Mg^++, Li^+, Zn^++, Cu^++, Ca^++, di-sodium EDTA, NH4^+, Sr^++, Na^+, K^+, Al^+++, or Ba^++ and 0.5% by weight cooked dent corn starch. The separate reaction mixtures were incubated at 37° C. for 10 minutes. The control reaction mixture contained enzyme, buffer, and starch but no additive. The starch hydrolysis reaction was stopped by combining the reaction mixture with a solution containing DNSA and heating for 30 min at 85° C. The absorbance of the control and test samples was measured at 562 nm to monitor the amount of reducing sugar in each sample.

In experiment [3] the target is β-amylase from barley (Hordeum vulgare, UniProt P16098). The experiment is described as above. The settings on record: for effect on rate of enzymatic hydrolysis (in words): 10 mM additive, cooked dent corn starch; for Relative Activity: Additive (10 mM), cooked dent corn starch 0.5%, pH 5.2, 37° C., 10 min. As to the method:
[…] The separate reaction mixtures were incubated at 37° C. for 10 minutes. The control reaction mixture contained enzyme, buffer, and starch but no additive. The starch hydrolysis reaction was stopped by combining the reaction mixture with a solution containing DNSA and heating for 30 min at 85° C. The absorbance of the control and test samples was measured at […] to monitor the amount of reducing sugar in each sample.

Experiment [4] deals with α-amylase from Bacillus licheniformis (Bacillus licheniformis, UniProt P06278). Described as above. The following applies: for effect on rate of enzymatic hydrolysis (in words): 10 mM additive, cooked dent corn starch; for Relative Activity: Additive (10 mM), cooked dent corn starch 0.5%, pH 5.2, 37° C., 10 min. Here is the method: as §1, with “α-amylase” for “glucoamylase”, “Bacillus licheniformis” for “Aspergillus Niger”, “[…],” for “comprising no metal or 10 mM Fe^++, Mg^++, Li^+, Zn^++, Cu^++, Ca^++,”
Sequence of α-amylase from Bacillus licheniformis (P06278 30-512): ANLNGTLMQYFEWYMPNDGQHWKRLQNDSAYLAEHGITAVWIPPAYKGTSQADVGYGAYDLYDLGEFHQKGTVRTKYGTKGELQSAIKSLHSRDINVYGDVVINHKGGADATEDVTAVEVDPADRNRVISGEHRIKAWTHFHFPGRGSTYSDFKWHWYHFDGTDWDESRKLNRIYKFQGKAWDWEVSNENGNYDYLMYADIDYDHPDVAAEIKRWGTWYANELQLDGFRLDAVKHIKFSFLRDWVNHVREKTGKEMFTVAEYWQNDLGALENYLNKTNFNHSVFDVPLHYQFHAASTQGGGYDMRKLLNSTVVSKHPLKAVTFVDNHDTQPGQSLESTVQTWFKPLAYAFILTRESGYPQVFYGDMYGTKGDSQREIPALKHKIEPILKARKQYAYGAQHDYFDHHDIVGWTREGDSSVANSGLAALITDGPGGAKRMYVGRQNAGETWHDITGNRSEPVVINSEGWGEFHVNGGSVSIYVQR

Sequence of β-amylase from barley (P16098 whole entry): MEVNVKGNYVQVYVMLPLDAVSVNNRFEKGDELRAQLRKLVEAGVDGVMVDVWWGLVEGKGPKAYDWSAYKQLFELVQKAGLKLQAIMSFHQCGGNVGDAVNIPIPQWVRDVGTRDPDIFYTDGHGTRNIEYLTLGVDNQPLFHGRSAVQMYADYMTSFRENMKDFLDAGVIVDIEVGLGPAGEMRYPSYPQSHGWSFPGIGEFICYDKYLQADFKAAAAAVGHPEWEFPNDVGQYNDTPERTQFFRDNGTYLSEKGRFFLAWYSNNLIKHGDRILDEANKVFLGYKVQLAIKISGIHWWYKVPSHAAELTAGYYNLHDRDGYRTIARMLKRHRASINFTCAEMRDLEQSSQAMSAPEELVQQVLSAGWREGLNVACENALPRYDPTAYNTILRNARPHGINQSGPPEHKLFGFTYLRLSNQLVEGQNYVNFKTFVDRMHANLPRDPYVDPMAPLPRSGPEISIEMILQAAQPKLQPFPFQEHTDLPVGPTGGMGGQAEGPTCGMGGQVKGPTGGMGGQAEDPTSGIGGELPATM
Sequence of glucoamylase from Aspergillus Niger (P69328 25-640): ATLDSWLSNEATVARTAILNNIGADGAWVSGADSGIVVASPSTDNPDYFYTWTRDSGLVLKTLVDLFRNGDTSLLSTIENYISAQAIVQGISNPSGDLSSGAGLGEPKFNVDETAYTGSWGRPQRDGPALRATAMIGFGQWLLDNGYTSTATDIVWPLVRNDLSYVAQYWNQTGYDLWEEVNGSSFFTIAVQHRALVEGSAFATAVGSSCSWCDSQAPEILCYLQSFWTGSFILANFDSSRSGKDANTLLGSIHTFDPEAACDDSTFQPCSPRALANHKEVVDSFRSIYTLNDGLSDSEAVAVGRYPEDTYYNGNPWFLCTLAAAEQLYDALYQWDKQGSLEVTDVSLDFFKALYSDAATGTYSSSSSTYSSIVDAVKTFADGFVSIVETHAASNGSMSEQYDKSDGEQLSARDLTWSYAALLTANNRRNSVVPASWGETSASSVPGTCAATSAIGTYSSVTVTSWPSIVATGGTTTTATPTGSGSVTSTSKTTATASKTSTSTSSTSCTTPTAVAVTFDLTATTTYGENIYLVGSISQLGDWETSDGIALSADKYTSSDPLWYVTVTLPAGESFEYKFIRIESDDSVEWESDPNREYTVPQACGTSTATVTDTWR

On to `[Fe+2]` [Fe^++], for which the “Relative Activity” value is reported as 74.0% in experiment [1], 98.3% in experiment [2], 88.7% in experiment [3] and 101.9% in experiment [4]. In addition, the “effect on hydrolysis of raw corn starch (in words)” value in experiment [1] is recorded as “do not have a similar effect”. For the same molecule, the “effect on rate of enzymatic hydrolysis (in words)” value was “do not significantly increase the rate of enzymatic hydrolysis” in experiment [2], “do not significantly increase the rate of enzymatic hydrolysis” in experiment [3] and “does not increase the enzymatic rate of hydrolysis” in experiment [4].
Regarding `[Mg+2]` [Mg^++, magnesium ion], the “Relative Activity” value in experiment [1] is listed as 92.4%; in experiment [2] it was 96.0%; in experiment [3], 110.8%; in experiment [4] it was 83.8%. In addition, the “effect on hydrolysis of raw corn starch (in words)” value in experiment [1] is on record as “do not have a similar effect”. Also, the entries for the “effect on rate of enzymatic hydrolysis (in words)” value in experiment [2], in experiment [3] and in experiment [4] were “do not significantly increase the rate of enzymatic hydrolysis”, “increase the rate of enzymatic hydrolysis” and “does not increase the enzymatic rate of hydrolysis”, respectively.
